Literature values in publication PMC2924185 (Journal of the American Chemical Society, 2010).

Tested on: panel of human protein kinases
Conditions: for selectivity score: judged by similar criteria

For `Cc1ccc(-c2nn(C(C)(C)C)c3ncnc(N)c23)cc1` [PP1], the “potency among Src-family kinases (in words)” value is given as “significantly more potent against Src-family members Fyn, Hck, and Lyn than against Src itself”.

In the case of `CC(C)(C)n1nc(-c2ccc(Cl)cc2)c2c(N)ncnc21` [PP2], the “potency among Src-family kinases (in words)” value is listed as “significantly more potent against Src-family members Fyn, Hck, and Lyn than against Src itself”.

For `CNC(=O)c1cc(Oc2ccc(NC(=O)Nc3ccc(Cl)c(C(F)(F)F)c3)cc2)ccn1` [sorafenib], the selectivity score is listed as 0.10.

In the case of `CN[C@@H]1C[C@H]2O[C@@](C)([C@@H]1OC)n1c3ccccc3c3c4c(c5c6ccccc6n2c5c31)C(=O)NC4` [staurosporine], the selectivity score is given as 0.50.
